According to the OPERA property sets (Mansouri et al. 2018):

Conditions: not given

SMILES	melting point	boiling point	log10 vapour pressure (mmHg)	ready biodegradability	log10 biodegradation half-life (days)	log10 Henry constant (atm·m³/mol)	log10 Koc (L/kg)
O=c1[nH]c2ccccc2n1CCCN1CCN(C(c2ccccc2)c2ccccc2)CC1	154 °C						
CC(=O)OC(C)=O	-73 °C	140 °C	0.708				
c1ccc2c(c1)Cc1ccccc1N2		347 °C					
N#CCN(CC#N)CCN(CC#N)CC#N	128 °C						
ClC1(Cl)CCCCC1	-47 °C	171 °C					
O=C(CCl)c1ccccc1	56.5 °C	247 °C	-2.27				
CC(C)(CO)[N+](=O)[O-]	89.5 °C						
CCCCCCCCN(CCCCCCCC)CCCCCCCC		366 °C		readily biodegradable			
CCCCCC(=O)OCC(COC(=O)CCCCC)OC(=O)CCCCC	-60 °C						
O=C(O)Cc1ccccc1O	148 °C	240 °C					
N#Cc1ccccc1Br	55.5 °C	252 °C					
CCC(C)(C)C(=O)O	-14 °C	186 °C	-0.83				
CCCCCCOC		126 °C					
ClCc1ccc(CCl)cc1	100 °C						
O=[PH](O)c1ccccc1	84 °C						
CC(C)N(N=O)C(C)C	48 °C	194 °C					
O=C(/C=C/c1ccc([N+](=O)[O-])cc1)c1ccccc1	159 °C						
CN(C)CCCN1c2ccccc2Sc2ccc(Cl)cc21.Cl	195 °C						
CC(C)C(C)(C)C(C)(C)C	-36.4 °C	166 °C					
CCC(=O)OCC(C)C	-71.4 °C	137 °C	0.811				
O=c1ccc2ccccc2[nH]1	200 °C						
CCC(C)(C)CC	-135 °C	86 °C	1.92		0.954		

SMILES	melting point	boiling point	log10 vapour pressure (mmHg)	ready biodegradability	log10 biodegradation half-life (days)	log10 Henry constant (atm·m³/mol)	log10 Koc (L/kg)
CC1(C)O[C@H]2CC(=O)OC[C@]23[C@H]2CC[C@@]4(C)[C@H](c5ccoc5)OC(=O)[C@H]5O[C@]54[C@]2(C)C(=O)C[C@@H]13	298 °C						
FCC(F)(F)C(F)F	-82 °C	26 °C	2.88				
O=C(Cl)CCCC(=O)Cl		217 °C	-0.932				
CCCn1cnc2c1c(=O)n(CCCCC(C)=O)c(=O)n2C	69 °C						
CCc1cccc2ccccc12	-13.9 °C	259 °C	-1.6			-3.16	3.78
c1cc2c3c(c1)CCC3CCC2 (stereo not drawn)	12.8 °C	249 °C					
CC(C)CNC(=O)N1CCNC1=O	95.5 °C						
C=C1CC(=O)O1	-6.5 °C	126 °C	1.03	readily biodegradable			
O=C1c2ccc(O)c(O)c2C(=O)c2ccc(O)c(O)c21	340 °C						
C[C@]12CC[C@@H]3c4ccc(O)cc4CC[C@H]3[C@@H]1CC[C@@H]2O	200 °C						
ClCC1C(CCl)C2(Cl)C(Cl)=C(Cl)C1(Cl)C2(Cl)Cl (stereo not drawn)	105 °C						
CCC(C)N (stereo not drawn)	-104 °C	62.8 °C	2.25	readily biodegradable			
CCC(Br)C(C)Br (stereo not drawn)	-56 °C	178 °C					
CO[SiH](OC)OC	-115 °C	81 °C	1.88				
CCCCCCCCCCCCCCCCCCCCCC	44.4 °C	369 °C	-5.89	readily biodegradable	2.1		
CN(C)C(CSC(N)=O)CSC(N)=O				not readily biodegradable			
Cc1cc(=O)c2ccccc2[nH]1	234 °C						
O=C(O)c1cc(Cl)ccc1Cl	154 °C	301 °C		not readily biodegradable			
Cc1cc(OC(=O)N(C)C)nn1C(=O)N(C)C	69.5 °C		-4.01				
CCOc1cccc(C=O)c1		246 °C					
Oc1ccc(Br)cc1Br	38 °C	238 °C		not readily biodegradable			
CC(C)C(O)C(C)C		139 °C	0.477				

SMILES	melting point	boiling point	log10 vapour pressure (mmHg)	ready biodegradability	log10 biodegradation half-life (days)	log10 Henry constant (atm·m³/mol)	log10 Koc (L/kg)
COc1ncnc(NS(=O)(=O)c2ccc(N)cc2)c1OC	192 °C						
c1cc2c(c3c1CCCC3)CCCC2	16.7 °C	295 °C					
CC(=O)c1ccc(Cl)cc1Cl	33.5 °C						
c1ccc(N=Nc2ccccc2)cc1	68.2 °C	293 °C	-3.44	not readily biodegradable			3.3
CC1=CC(=O)CC(C)(C)[C@@]1(O)/C=C/C(C)=C\C(=O)O	160 °C						
NC(=O)Nc1ccccc1Cl							1.61
COC(=O)C(C)C(C)=O (stereo not drawn)		177 °C					
CC(C)(C)OOC(C)(C)C	-40 °C	111 °C	1.4				
Cc1ccc2nccc(C)c2c1	22 °C	274 °C					
CC1(C)CCCCC1	-33.3 °C	120 °C	1.36	not readily biodegradable			
COC(=O)C1(S(=O)(=O)c2ccc(Br)cc2)CCCCC1	112 °C						
CCc1ccc(Cl)cc1	-62.6 °C	184 °C					
C[Si](C)(C)N=C=N[Si](C)(C)C	-23 °C	164 °C					
CCCCCN(CCCCC)CCCCC		242 °C					
Oc1c(Br)c(Br)c(Br)c(Br)c1Br	230 °C			not readily biodegradable			
O=C(O)CP(=O)(O)O	144 °C						
CO[C@H]1O[C@H](CO)[C@@H](O)[C@H](O)[C@H]1O	168 °C						
CC=CC=CCO	30.5 °C						
CCN(CC)c1ccc([N+](=O)[O-])cc1	77.5 °C						
CCC1(C)CC1	-130 °C	56.8 °C					
CCC#CCCCC	-104 °C	133 °C					
c1cnc2c(c1)ccc1cccnc12	117 °C						

SMILES	melting point	boiling point	log10 vapour pressure (mmHg)	ready biodegradability	log10 biodegradation half-life (days)	log10 Henry constant (atm·m³/mol)	log10 Koc (L/kg)
O=C1C=CC(=O)c2c(O)ccc(O)c21	232 °C						
Nc1ccc(Cc2ccc(N)cc2)cc1	92.5 °C	398 °C		not readily biodegradable			1.99
Cc1cccc2c1CC=C2		209 °C					
CCC(C)C(C)(C)CC (stereo not drawn)	-101 °C	140 °C	0.948				
CC1CC1	-177 °C	0.7 °C	3.2				
Cc1c(C)c(C)c(C(=O)O)c(C)c1C	210 °C						
Cc1cccc(Cl)n1		184 °C					
c1ccc(-n2cccc2)cc1	62 °C	234 °C					
COc1ccc(C(c2ccc(OC)cc2)C(Cl)(Cl)Cl)cc1	87 °C	346 °C				-6.69	4.9
CC(COc1ccccc1)N(CCCl)Cc1ccccc1 (stereo not drawn)	39 °C						
CCCCCC(CO)CCC (stereo not drawn)		218 °C					
C=CCC	-185 °C	-6.2 °C	3.35			-0.633	
CC(Br)CCl (stereo not drawn)		118 °C					
CC(=NO)C(C)=NO	246 °C						
COP(=S)(OC)Oc1cc(Cl)c(Cl)cc1Cl	41 °C		-4.12				
c1cc2cccc3c4cccc5cccc(c(c1)c23)c54	274 °C		-8.28	not readily biodegradable	2.95		
CCOC(=O)COC		142 °C					
FCC1CO1 (stereo not drawn)		85.5 °C					
O=Cc1ccc(C=O)cc1	117 °C	246 °C		readily biodegradable			
CCCC1CCCCC1	-94.9 °C	157 °C	0.622				

Same assay, conditions: fish

SMILES	log10 BCF	log10 biotransformation half-life (days)
CCCCCCCCN(CCCCCCCC)CCCCCCCC	1.93	
O=[PH](O)c1ccccc1	0.78	
Clc1cccc(-c2c(Cl)cccc2Cl)c1Cl		2.18
Brc1cc(Br)c(Br)c(Oc2c(Br)c(Br)c(Br)c(Br)c2Br)c1Br	5.57	
c1cc2c(c3c1CCCC3)CCCC2		0.76
Nc1ccc(Cc2ccc(N)cc2)cc1	1.18	
COc1ccc(C(c2ccc(OC)cc2)C(Cl)(Cl)Cl)cc1	2.5	
COP(=S)(OC)Oc1cc(Cl)c(Cl)cc1Cl	3.58	0.95
c1cc2cccc3c4cccc5cccc(c(c1)c23)c54		-0.06
